{"source": "patent US8946201B2", "about": "“Methods for inhibiting TGF-β” (Saint Louis University, priority 2007, dated 2015)", "key": {"TβR-I and TβR-II [1]": {"system": "TβR-I and TβR-II", "assay": "125I-TGF-β1 affinity labeling, BAEC", "format": "cell-based, bovine", "details": "1 μM, 37° C. 16 hr; BAEC cells; 2.47 untreated", "protocol": "(§1) (B, C, D, E) Cells were treated with increasing concentrations of cholesterol in the presence (C) and absence (B, D, E) of 0.2% β-CD, as indicated. After 1 hr at 37° C., ^125I-TGF-β1 affinity labeling of TβR-I and TβR-II in cells was performed at 0° C. ^125I-TGF-β1 affinity-labeled TβR-I and TβR-II were analyzed by 7.5% SDS-PAGE and autoradiography or quantified with a PhosphoImager. A representative of a total of three analyses is shown (top). The bracket indicates the locations of ^125I-TGF-β affinity-labeled TβR-I and TβR-II. The relative intensities of ^125I-TGF-β1 affinity-labeled TβR-I and TβR-II in cells treated without cholesterol were taken as 100%. The quantitative data from three analyses is shown (bottom).\n(§2) (A, B, C, D, E, F) Cells were treated with LDL (50 μg protein/ml), VLDL (5 μg protein/ml), HDL (50 μg protein/ml), lipoprotein (a) (10 μg/ml), fluvastatin (F; 1 μM), lovastatin (L; 1 μM), nystatin (Nys; 25 μg/ml), β-CD (β-CD; 8 mM), cholest-4-en-3-one (3-one; 50 μg/ml) or cholesterol (Chol; 50 μg/ml) alone or combination of two. After 1 hr at 37° C. or 16 hr at 37° C. (for fluvastatin and lovastatin), ^125I-TGF-β1 affinity labeling of cell-surface TGF-β receptors was performed at 0° C. ^125I-TGF-β1 affinity-labeled TβR-I and TβR-II were analyzed by 7.5% SDS-PAGE and autoradiography. The relative intensities of TβR-I and TβR-II were quantified with a PhosphoImager. The ratio of ^125I-TGF-β1 binding to TβR-II and TβR-I were estimated. The numbers above the lane sequence denote the ratio of TβR-II/TβR-I.\n(§3) After cross-linking, cell lysates were analyzed by 7.5% SDS-PAGE and autoradiography or quantified by a PhosphoImager. For all experiments, cholesterol or cholesterol derivatives were prepared as the stock solution with a concentration of 25 mg/ml in ethanol. The final concentration of ethanol in the medium was 0.2% (by vol.)."}, "TβR-I and TβR-II [2]": {"system": "TβR-I and TβR-II", "assay": "125I-TGF-β1 affinity labeling, CHO-K1 cells", "format": "cell-based, Chinese hamster", "details": "1 μM, 37° C. 16 hr, 0.12 untreated", "protocol": "as §2\nas §3, with “vol.). […]” for “vol.).”"}, "TβR-I and TβR-II [3]": {"system": "TβR-I and TβR-II", "assay": "Western blot of TβR-I and TβR-II protein levels, Mv1Lu cells", "format": "cell-based, mink", "details": "37° C. for 16 hr; versus cholesterol-treated and control cells", "procedure": "Cells grown to near confluence on 12-well cluster dishes were treated with cholesterol or LDL in serum-free DMEM (vol.=0.5 ml/well) at 37° C. for 1 hr. The treated cells were further incubated with 50 or 100 pM TGF-β1 at 37° C. for 30 min (for determining Smad2 phosphorylation) or for 2 hr (for determining TβR-II). Treated cells were lysed and cell lysates were analyzed by 7.5% SDS-PAGE and Western blot analysis using anti-Smad2, anti-P-Smad2, anti-caveolin-1, anti-TβR-I (alk5) or anti-TβR-II antibodies as described previously (30). The antigens on the blots were visualized by using horseradish peroxidase-conjugated anti-rabbit IgG antibody and the ECL system as described (30).\nTo determine if cholesterol suppresses TGF-β responsiveness by decreasing the ratio of TGF-β1 binding to TβR-II and TβR-I, we first determined the time course of the effect of cholesterol treatment on the ratio of ^125I-TGF-β1 binding to TβR-II and TβR-I in Mv1Lu cells. These cells were treated with 50 μg/ml cholesterol at 37° C. for several time periods. ^125I-TGF-β1 binding to TGF-β receptors was then determined by affinity labeling using the bifunctional cross-linking agent DSS (disuccinimidyl suberate) followed by 7.5% SDS-PAGE and autoradiography or quantified with a PhosphoImager. […] We then performed analysis of the effect of cholesterol treatment on TGF-β1 binding to TβR-I and TβR-II in several cell types. Mv1Lu, BAEC, and NRK cells were treated for 1 hr with increasing concentrations of cholesterol in the presence and absence of 0.2% β-cyclodextrin (β-CD, which forms water-soluble complexes with cholesterol) at 37° C. The binding of TGF-β1 to TβR-I and TβR-II in these cells was then determined by ^125I-TGF-β1 affinity labeling at 0° C."}, "TβR-I and TβR-II [4]": {"system": "TβR-I and TβR-II", "assay": "125I-TGF-β1 affinity labeling, Mv1Lu cells", "format": "cell-based, mink", "details": "1 μM, 37° C. 16 hr; Mv1Lu cells; 0.88 untreated", "protocol": "(A) Mv1Lu cells were treated with 50 μg/ml cholesterol at 37° C. After several time periods, as indicated, ^125I-TGF-β1-affinity labeling was performed at 0° C. ^125I-TGF-β1 affinity-labeled TGF-β receptors were analyzed by 7.5% SDS-PAGE and autoradiography (a) and quantified with a PhosphoImager. The bracket indicates the locations of ^125I-TGF-β1 affinity-labeled TβR-I and TβR-II. The ratio of ^125I-TGF-β1 binding to TβR-II and TβR-I is plotted against incubation time (b).\nas §1\nThe bracket indicates the locations of ^125I-TGF-β1 affinity-labeled TβR-I and TβR-II. The relative intensities of ^125I-TGF-β1-TβR-I and ^125I-TGF-β1-TβR-II complexes, which were quantified with a PhosphoImager, are plotted against TGF-β1 concentrations (bottom).\nas §2\n(G) Mv1Lu cells were treated with 50 μg/ml of cholesterol and cholesterol analogs/derivatives including 25-hydroxycholesterol, 7-dehydrocholesterol (7-DHC), 7-ketocholesterol, 7β, 8β-epoxycholesterol, 7β-hydroxycholesterol, and oxidized 7-dehydrocholesterol (oxy-7DHC). After 1 hr at 37° C., ^125I-TGF-β1 affinity labeling of TGF-β receptors was performed. ^125I-TGF-β1 affinity-labeled TβR-I and TβR-II were analyzed by 7.5% SDS-PAGE and autoradiography. The bracket indicates the locations of ^125I-TGF-β1-affinity-labeled TβR-I and TβR-II. The relative intensities of ^125I-TGF-β1 affinity-labeled TβR-I and TβR-II were determined by a PhosphoImager. The ratios of ^125I-TGF-β1 binding to TβR-II and TβR-I were estimated. The numbers above the lane sequence denote the ratio of TβR-II/TβR-I.\nas §3"}, "PAI-1 expression": {"system": "PAI-1 expression", "assay": "TGF-β1-induced PAI-1 expression, Northern blot, Mv1Lu cells", "format": "cell-based, mink", "details": "Mv1Lu cells", "protocol": "(A, B, C, D, E, F) Cells were treated with 50 μg/ml cholesterol (A, B, C, D) and 50 μg/ml LDL (D) at 37° C. for 1 hr or with 1 μM fluvastatin or lovastatin (E) or several concentrations of fluvastatin (F) at 37° C. for 16 hr and then further incubated with increasing concentrations (as indicated) of TGF-β1 (A, B, C, E) or 50 pM TGF-β1 (D,F) for 2 hr. Northern blot analysis of PAI-1 and G3PDH was performed. A representative of a total of three analyses is shown (a). The relative intensities of the transcripts were quantified with a PhosphoImager. The ratio of the relative intensities of PAI-1 and G3PDH transcripts in cells treated without TGF-β1 and cholesterol, LDL or statins on the blot was taken as 1 fold or 100% of PAI-1 expression. The quantitative data from three independent analyses is shown (b). […] (G) Mv1Lu cells stably expressing a luciferase reporter gene driven by the PAI-1 promoter (MLECs-clone 32) were treated with increasing concentrations (as indicated) of cholesterol at 37 EC for 1 hr (a) or with 1 μM lovastatin at 37° C. for 16 hr (b) and then further incubated with 50 pM TGF-β for 7 hr. The luciferase activity in cells treated without cholesterol was taken as 100% (a). […] (H) Cells were incubated with 0.0625 and 0.125 pM TGF-β1 in the presence of increasing concentrations of cholesterol, as indicated. […] The experiments were carried out in triplicate."}}, "data": [{"smiles": "CC(C)n1c(/C=C/C(O)CC(O)CC(=O)O)c(-c2ccc(F)cc2)c2ccccc21", "note": "(stereo not drawn) [fluvastatin, reference compound]", "values": [{"measurement": "ratio of TβR-II/TβR-I", "setting": "TβR-I and TβR-II [1]", "result": 2.91}, {"measurement": "ratio of TβR-II/TβR-I", "setting": "TβR-I and TβR-II [2]", "result": 0.19}, {"measurement": "increase of the total amount of TβR-II", "setting": "TβR-I and TβR-II [3]", "result": "~1.5", "unit": "fold"}, {"measurement": "ratio of TβR-II/TβR-I", "setting": "TβR-I and TβR-II [4]", "result": 1.3}, {"measurement": "enhancement of PAI-1 expression", "setting": "PAI-1 expression; 1 μM, 16 hr, 10 pM TGF-β1", "result": 3, "unit": "fold"}, {"measurement": "EC50", "setting": "PAI-1 expression; stimulated by 50 pM TGF-β1, read-out: EC50 of enhancement of PAI-1 expression", "result": 500, "unit": "nM"}]}]}
